Laboratory results from BigSolDB 2.1.

O=Cc1ccc(O)cc1
solubility (mole fraction)
Conditions | in 1,4-dioxane | in 2-butanone | in DMF | in acetone | in acetonitrile | in ethanol | in ethyl acetate
278.15 K | – | 0.0731 | 0.0741 | 0.0713 | 0.0318 | 0.043 | 0.0708
280.65 K | – | 0.0822 | 0.0863 | 0.0796 | 0.036 | 0.0493 | –
283.15 K | 0.0467 | 0.0911 | 0.0997 | 0.0889 | 0.0405 | 0.0563 | –
285.65 K | 0.0555 | 0.101 | 0.114 | 0.0986 | 0.0454 | 0.0639 | –
288.15 K | 0.0655 | 0.111 | 0.131 | 0.109 | 0.0508 | 0.0725 | –
290.65 K | 0.0772 | 0.123 | 0.148 | 0.12 | 0.0567 | 0.0815 | –
293.15 K | 0.0905 | 0.135 | 0.168 | 0.133 | 0.0632 | 0.0914 | –
295.65 K | 0.106 | 0.148 | 0.191 | 0.145 | 0.0704 | 0.102 | –
298.15 K | 0.123 | 0.163 | 0.214 | 0.159 | 0.0782 | 0.115 | –
300.65 K | 0.141 | 0.177 | 0.241 | 0.174 | 0.0867 | 0.128 | –
303.15 K | 0.163 | 0.194 | 0.27 | 0.189 | 0.0957 | 0.142 | –
305.65 K | 0.186 | 0.21 | 0.302 | 0.205 | 0.106 | 0.156 | –
308.15 K | 0.211 | 0.229 | 0.338 | 0.222 | 0.116 | 0.173 | –
310.65 K | 0.238 | 0.247 | 0.376 | 0.24 | 0.128 | 0.191 | –
313.15 K | 0.267 | 0.267 | 0.416 | 0.259 | 0.14 | 0.209 | –
315.65 K | 0.299 | 0.288 | 0.458 | 0.279 | 0.154 | 0.227 | –
318.15 K | 0.334 | 0.309 | 0.504 | 0.299 | 0.168 | 0.247 | –
